Target: T1, RORc ligand binding domain (Homo sapiens, UniProt P51449)
T1 sequence (P51449 269-508 limits assumed): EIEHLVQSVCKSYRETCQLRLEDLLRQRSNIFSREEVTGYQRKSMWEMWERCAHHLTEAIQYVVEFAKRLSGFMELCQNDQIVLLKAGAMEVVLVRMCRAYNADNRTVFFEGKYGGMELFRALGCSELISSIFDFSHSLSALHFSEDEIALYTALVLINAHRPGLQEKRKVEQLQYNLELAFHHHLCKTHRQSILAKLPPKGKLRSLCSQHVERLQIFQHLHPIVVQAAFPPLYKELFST
Assay: In Vitro RORc Ligand Binding Assay
Conditions: RORc IC50, radioligand 25-[3H]hydroxycholesterol 6 nM; 0.6 ug/mL RORc receptor; 3 h at 25° C.

Question: For CC1(C)[C@H]2CC[C@]1(c1cc(O)cc(=O)o1)c1nnc(-c3c(F)cccc3F)cc12 [Example 25, 6-((5R,8R)-3-(2,6-difluorophenyl)-9,9-dimethyl-5,6,7,8-tetrahydro-5,8-methanocinnolin-8-yl)-4-hydroxy-2H-pyran-2-one], which IC50 is on record?
Answer: 2490 nM

Question: For C[C@H](CO)NC(=O)c1cccc([C@@]23CC[C@@H](c4cc(-c5c(F)cccc5F)nnc42)C3(C)C)n1 [Example 54, 6-((5R,8S)-3-(2,6-difluorophenyl)-9,9-dimethyl-5,6,7,8-tetrahydro-5,8-methanocinnolin-8-yl)-N-((R)-1-hydroxypropan-2-yl)picolinamide], which IC50 is on record?
Answer: 29.5 nM

Question: For C[C@@H](O)c1coc(-c2cncc([C@@]34CC[C@@H](c5cc(-c6c(F)cccc6F)nnc53)C4(C)C)n2)n1 [Example 379, (R)-1-(2-(6-((5R,8S)-3-(2,6-difluorophenyl)-9,9-dimethyl-5,6,7,8-tetrahydro-5,8-methanocinnolin-8-yl)pyrazin-2-yl)oxazol-4-yl)ethanol], which IC50 is on record?
Answer: 7.4 nM

Question: With CC1(C)[C@H]2CC[C@]1(c1cccc(C(=O)NCC3(O)COC3)n1)c1nnc(-c3c(F)cccc3F)cc12 [Example 131, 6-((5R,8S)-3-(2,6-difluorophenyl)-9,9-dimethyl-5,6,7,8-tetrahydro-5,8-methanocinnolin-8-yl)-N-((3-hydroxyoxetan-3-yl)methyl)picolinamide] as the molecule, how does the IC50 read?
Answer: 44.4 nM

Question: With CC1(C)[C@H]2CC[C@]1(c1cccc(N3CCN(CCO)C3=O)n1)c1nnc(-c3c(F)cccc3F)cc12 [Example 158, 1-(6-((5R,8S)-3-(2,6-difluorophenyl)-9,9-dimethyl-5,6,7,8-tetrahydro-5,8-methanocinnolin-8-yl)pyridin-2-yl)-3-(2-hydroxyethyl)imidazolidin-2-one] as the molecule, how does the IC50 read?
Answer: 26.1 nM

Question: How did the IC50 turn out when CC1(C)[C@H]2CC[C@]1(c1ccnc(-n3cnc(CO)c3)n1)c1nnc(-c3c(F)cccc3F)cc12 [Example 219] was run?
Answer: 6.7 nM

Question: CC1(C)[C@H]2CC[C@]1(c1ccnc(-c3cnc(=O)[nH]c3)n1)c1nnc(-c3c(F)cccc3F)cc12 [Example 409] was tested. Which IC50 did it give?
Answer: 7.8 nM

Question: With CC1(C)[C@H]2CC[C@]1(c1nccc(=O)[nH]1)c1nnc(-c3c(F)cccc3F)cc12 [Example 20, 2-((5R,8R)-3-(2,6-difluorophenyl)-9,9-dimethyl-5,6,7,8-tetrahydro-5,8-methanocinnolin-8-yl)pyrimidin-4(3H)-one] as the molecule, how does the IC50 read?
Answer: 140 nM

Question: Which IC50 does the source give for CC1(C)[C@H]2CC[C@]1(c1nccc(-n3ccc(CO)n3)n1)c1nnc(-c3c(F)cccc3F)cc12 [Example 284, (1-(2-((5R,8R)-3-(2,6-difluorophenyl)-9,9-dimethyl-5,6,7,8-tetrahydro-5,8-methanocinnolin-8-yl)pyrimidin-4-yl)-1H-pyrazol-3-yl)methanol] here?
Answer: 27.6 nM

Question: How did the IC50 turn out when CC[C@@H](O)c1n[nH]c(-c2cccc([C@@]34CC[C@@H](c5cc(-c6c(F)cccc6F)nnc53)C4(C)C)n2)n1 [Example 318, (R)-1-(5-(6-((5R,8S)-3-(2,6-difluorophenyl)-9,9-dimethyl-5,6,7,8-tetrahydro-5,8-methanocinnolin-8-yl)pyridin-2-yl)-1H-1,2,4-triazol-3-yl)propan-1-ol] was run?
Answer: 10.8 nM

Question: With CC1(C)[C@H]2CC[C@]1(c1cccc(S(=O)(=O)NC3(CO)COC3)n1)c1nnc(-c3c(F)cccc3F)cc12 [Example 199, 6-((5R,8S)-3-(2,6-difluorophenyl)-9,9-dimethyl-5,6,7,8-tetrahydro-5,8-methanocinnolin-8-yl)-N-(3-(hydroxymethyl)oxetan-3-yl)pyridine-2-sulfonamide] as the molecule, how does the IC50 read?
Answer: 9.4 nM

Question: How did the IC50 turn out when CC1(C)[C@H]2CC[C@]1(c1cncc(=O)[nH]1)c1nnc(-c3c(F)cccc3F)cc12 [Example 185, 6-((5R,8S)-3-(2,6-difluorophenyl)-9,9-dimethyl-5,6,7,8-tetrahydro-5,8-methanocinnolin-8-yl)pyrazin-2(1H)-one] was run?
Answer: 30.5 nM

Question: Which IC50 does the source give for CN(C)C(=O)c1cncc([C@@]23CC[C@@H](c4cc(-c5c(F)cccc5F)nnc42)C3(C)C)n1 [Example 28, 6-((5R,8S)-3-(2,6-difluorophenyl)-9,9-dimethyl-5,6,7,8-tetrahydro-5,8-methanocinnolin-8-yl)-N,N-dimethylpyrazine-2-carboxamide] here?
Answer: 41.7 nM

Question: CC1(C)[C@H]2CC[C@]1(c1cccc(-c3nc(CCO)n[nH]3)n1)c1nnc(-c3c(F)cccc3F)cc12 [Example 310, 2-(5-(6-((5R,8S)-3-(2,6-difluorophenyl)-9,9-dimethyl-5,6,7,8-tetrahydro-5,8-methanocinnolin-8-yl)pyridin-2-yl)-1H-1,2,4-triazol-3-yl)ethanol] was tested. Which IC50 did it give?
Answer: 73.5 nM

Question: CC1(C)[C@H]2CC[C@]1(c1cncc(-c3ccnc(OCC(N)=O)c3)n1)c1nnc(-c3c(F)cccc3F)cc12 [Example 410, 2-((4-(6-((5R,8S)-3-(2,6-difluorophenyl)-9,9-dimethyl-5,6,7,8-tetrahydro-5,8-methanocinnolin-8-yl)pyrazin-2-yl)pyridin-2-yl)oxy)acetamide] was tested. Which IC50 did it give?
Answer: 6.3 nM

Question: For CC1(C)[C@H]2CC[C@]1(c1cccc(-c3cnc(CO)o3)n1)c1nnc(-c3c(F)cccc3F)cc12 [Example 207, (5-(6-((5R,8S)-3-(2,6-difluorophenyl)-9,9-dimethyl-5,6,7,8-tetrahydro-5,8-methanocinnolin-8-yl)pyridin-2-yl)oxazol-2-yl)methanol], which IC50 is on record?
Answer: 3.8 nM

Question: With CC1(C)[C@H]2CC[C@]1(c1cnc(C#N)c(C#N)n1)c1nnc(-c3c(F)cccc3F)cc12 [Example 159, 5-((5R,8S)-3-(2,6-difluorophenyl)-9,9-dimethyl-5,6,7,8-tetrahydro-5,8-methanocinnolin-8-yl)pyrazine-2,3-dicarbonitrile] as the molecule, how does the IC50 read?
Answer: 548 nM

Question: For CC1(C)[C@H]2CC[C@]1(c1ccnc(N3CCN(S(C)(=O)=O)CC3)n1)c1nnc(-c3c(F)cccc3F)cc12 [Example 338], which IC50 is on record?
Answer: 3.2 nM

Question: For CC1(C)[C@H]2CC[C@]1(c1cncc(-c3nc(C#N)co3)n1)c1nnc(-c3c(F)cccc3F)cc12 [Example 341, 2-(6-((5R,8S)-3-(2,6-difluorophenyl)-9,9-dimethyl-5,6,7,8-tetrahydro-5,8-methanocinnolin-8-yl)pyrazin-2-yl)oxazole-4-carbonitrile], which IC50 is on record?
Answer: 3.4 nM

Question: With CC1(C)[C@H]2CC[C@]1(c1ccnc(-n3nccn3)n1)c1nnc(-c3c(F)cccc3F)cc12 [Example 189] as the molecule, how does the IC50 read?
Answer: 14.8 nM

Question: For CC1(C)[C@H]2CC[C@]1(c1cc(C(=O)NCCO)ccn1)c1nnc(-c3c(F)cccc3F)cc12 [Example 64], which IC50 is on record?
Answer: 95.4 nM

Question: CC1(C)[C@H]2CC[C@]1(c1c(Br)cnc(C#N)c1F)c1nnc(-c3c(F)cccc3F)cc12 [Example 242, 5-bromo-4-((5R,8S)-3-(2,6-difluorophenyl)-9,9-dimethyl-5,6,7,8-tetrahydro-5,8-methanocinnolin-8-yl)-3-fluoropicolinonitrile] was tested. Which IC50 did it give?
Answer: 5 nM

Question: How did the IC50 turn out when CC1(C)[C@H]2CC[C@]1(c1c[nH]c(=O)cn1)c1nnc(-c3c(F)cccc3F)cc12 [Example 5, 5-((5R,8S)-3-(2,6-difluorophenyl)-9,9-dimethyl-5,6,7,8-tetrahydro-5,8-methanocinnolin-8-yl)pyrazin-2(1H)-one] was run?
Answer: 38.4 nM

Question: Which IC50 does the source give for CC1(C)[C@H]2CC[C@]1(c1ccnc(-c3ccnc(C(N)=O)c3)n1)c1nnc(-c3c(F)cccc3F)cc12 [Example 404] here?
Answer: 9.2 nM

Question: How did the IC50 turn out when CC(C)S(=O)(=O)Nc1cccc([C@@]23CC[C@@H](c4cc(-c5c(F)cccc5F)nnc42)C3(C)C)n1 [Example 156, N-(6-((5R,8S)-3-(2,6-difluorophenyl)-9,9-dimethyl-5,6,7,8-tetrahydro-5,8-methanocinnolin-8-yl)pyridin-2-yl)propane-2-sulfonamide] was run?
Answer: 30.6 nM
